In ChEMBL document CHEMBL3813664, “Synthesis and evaluation of biphenyl derivatives as potential downregulators of VEGF protein secretion and telomerase-related gene expressions” (Bioorg Med Chem, 2016):
Converted amounts (≈) assume the structure as drawn. The source made the active and inactive calls. No cut-off for these calls is given here.

How the values were obtained:
[1] = tested on: HEK293; assay: Cytotoxicity against HEK293 cells assessed as reduction in cell growth after 3 days by MTT assay; type: cell-based; settings: Homo sapiens, HEK293, 72 h
[2] = tested on: HT-29; assay: Cytotoxicity against human HT-29 cells assessed as reduction in cell growth after 3 days by MTT assay; type: functional, cell-based; settings: HT-29, 72 h
[3] = tested on: MCF7; assay: Cytotoxicity against human MCF7 cells assessed as reduction in cell growth after 3 days by MTT assay; type: functional, cell-based; settings: MCF7, 72 h
[4] = Therapeutic index, ratio of IC50 for HEK293 cells to IC50 for human HT-29 cells; type: cell-based; settings: HEK293 cells versus HT-29 cells, read-out: Ratio IC50
[5] = Therapeutic index, ratio of IC50 for HEK293 cells to IC50 for human MCF7 cells; type: cell-based; settings: HEK293 cells versus MCF7 cells, read-out: Ratio IC50
[6] = tested on: HT-29; assay: Downregulation of VEGFA-165 secretion in human HT-29 cells assessed as protein secretion levels at 3 ug/ml after 72 hrs by ELISA relative to control; type: functional
[7] = tested on: HT-29; assay: Downregulation of VEGFA gene expression in human HT-29 cells assessed as gene expression levels at 3 ug/ml after 48 hrs by RT-qPCR analysis relative to control; type: functional
[8] = tested on: HT-29; assay: Downregulation of TERT gene expression in human HT-29 cells assessed as gene expression levels at 3 ug/ml after 48 hrs by RT-qPCR analysis relative to control; type: functional
[9] = tested on: HT-29; assay: Downregulation of c-Myc gene expression in human HT-29 cells assessed as gene expression levels at 3 ug/ml after 48 hrs by RT-qPCR analysis relative to control; type: functional
[10] = tested on: HT-29; assay: Downregulation of VEGFA-165 secretion in human HT-29 cells assessed as protein secretion levels at 15 ug/ml after 72 hrs by ELISA relative to control; type: functional
[11] = tested on: HT-29; assay: Downregulation of VEGFA gene expression in human HT-29 cells assessed as gene expression levels at 15 ug/ml after 48 hrs by RT-qPCR analysis relative to control; type: functional
[12] = tested on: HT-29; assay: Downregulation of TERT gene expression in human HT-29 cells assessed as gene expression levels at 15 ug/ml after 48 hrs by RT-qPCR analysis relative to control; type: functional
[13] = tested on: HT-29; assay: Downregulation of c-Myc gene expression in human HT-29 cells assessed as gene expression levels at 15 ug/ml after 48 hrs by RT-qPCR analysis relative to control; type: functional
[14] = tested on: HT-29; assay: Downregulation of VEGFA-165 secretion in human HT-29 cells assessed as protein secretion levels at 20 ug/ml after 72 hrs by ELISA relative to control; type: functional
[15] = tested on: HT-29; assay: Downregulation of VEGFA gene expression in human HT-29 cells assessed as gene expression levels at 20 ug/ml after 48 hrs by RT-qPCR analysis relative to control; type: functional
[16] = tested on: HT-29; assay: Downregulation of TERT gene expression in human HT-29 cells assessed as gene expression levels at 20 ug/ml after 48 hrs by RT-qPCR analysis relative to control; type: functional
[17] = tested on: HT-29; assay: Downregulation of c-Myc gene expression in human HT-29 cells assessed as gene expression levels at 20 ug/ml after 48 hrs by RT-qPCR analysis relative to control; type: functional
[18] = tested on: HT-29; assay: Downregulation of VEGFA-165 secretion in human HT-29 cells assessed as protein secretion levels at 10 ug/ml after 72 hrs by ELISA relative to control; type: functional
[19] = tested on: HT-29; assay: Downregulation of VEGFA gene expression in human HT-29 cells assessed as gene expression levels at 10 ug/ml after 48 hrs by RT-qPCR analysis relative to control; type: functional
[20] = tested on: HT-29; assay: Downregulation of TERT gene expression in human HT-29 cells assessed as gene expression levels at 10 ug/ml after 48 hrs by RT-qPCR analysis relative to control; type: functional
[21] = tested on: HT-29; assay: Downregulation of c-Myc gene expression in human HT-29 cells assessed as gene expression levels at 10 ug/ml after 48 hrs by RT-qPCR analysis relative to control; type: functional
[22] = tested on: HT-29; assay: Downregulation of VEGFA-165 secretion in human HT-29 cells assessed as protein secretion levels at 5 ug/ml after 72 hrs by ELISA relative to control; type: functional
[23] = tested on: HT-29; assay: Downregulation of VEGFA gene expression in human HT-29 cells assessed as gene expression levels at 5 ug/ml after 48 hrs by RT-qPCR analysis relative to control; type: functional
[24] = tested on: HT-29; assay: Downregulation of TERT gene expression in human HT-29 cells assessed as gene expression levels at 5 ug/ml after 48 hrs by RT-qPCR analysis relative to control; type: functional
[25] = tested on: HT-29; assay: Downregulation of c-Myc gene expression in human HT-29 cells assessed as gene expression levels at 5 ug/ml after 48 hrs by RT-qPCR analysis relative to control; type: functional
[26] = tested on: HT-29; assay: Downregulation of VEGFA-165 secretion in human HT-29 cells assessed as protein secretion levels at <1.1 ug/ml after 72 hrs by ELISA relative to control; type: functional, cell-based

Nc1ccccc1-c1cccc(O)c1
IC50 [1]: 10.5 µg/mL (≈ 56.7 µM) | IC50 [2]: 9.2 µg/mL (≈ 49.7 µM) | IC50 [3]: 16 µg/mL (≈ 86.4 µM) | selectivity ratio [4]: 1.1 | selectivity ratio [5]: 0.7 | Activity [6]: 48% | Activity [7]: 54% | Activity [8]: 77% | Activity [9]: 38%

COc1ccc(-c2cccc(N)c2)cc1OC
IC50 [1]: 20 µg/mL (≈ 87.2 µM) | IC50 [2]: 4 µg/mL (≈ 17.4 µM) | IC50 [3]: > 100 µg/mL | selectivity ratio [4]: 5 | selectivity ratio [5]: < 0.2 | Activity [6]: 42% | Activity [7]: 57% | Activity [8]: 90% | Activity [9]: 40%

COc1ccccc1-c1cccc(O)c1
IC50 [1]: 50 µg/mL (≈ 250 µM) | IC50 [2]: 22 µg/mL (≈ 110 µM) | IC50 [3]: 44 µg/mL (≈ 220 µM) | selectivity ratio [4]: 2.3 | selectivity ratio [5]: 1.1 | Activity [10]: 31% | Activity [11]: 76% | Activity [12]: 62% | Activity [13]: 50%

COc1ccccc1-c1ccccc1O
IC50 [1]: 54 µg/mL (≈ 270 µM) | IC50 [2]: 2.7 µg/mL (≈ 13.5 µM) | IC50 [3]: > 100 µg/mL | selectivity ratio [4]: 20 | selectivity ratio [5]: < 0.5 | Activity [6]: 33% | Activity [7]: 17% | Activity [8]: 3% | Activity [9]: 6%

COc1ccc(-c2ccccc2N)cc1OC
IC50 [1]: 49.9 µg/mL (≈ 218 µM) | IC50 [2]: 15 µg/mL (≈ 65.4 µM) | IC50 [3]: 18 µg/mL (≈ 78.5 µM) | selectivity ratio [4]: 3.3 | selectivity ratio [5]: 3 | Activity [10]: 56% | Activity [11]: 61% | Activity [12]: 86% | Activity [13]: 50%

COc1ccc(-c2ccc(O)cc2)c(OC)c1
IC50 [1]: > 100 µg/mL | IC50 [2]: 21 µg/mL (≈ 91.2 µM) | IC50 [3]: 47 µg/mL (≈ 204 µM) | selectivity ratio [4]: > 5 | selectivity ratio [5]: > 2 | Activity [10]: 35% | Activity [11]: 37% | Activity [12]: 56% | Activity [13]: 87%

Nc1ccccc1-c1ccccc1
IC50 [1]: 54.9 µg/mL (≈ 324 µM) | IC50 [2]: 16 µg/mL (≈ 94.5 µM) | IC50 [3]: 2.9 µg/mL (≈ 17.1 µM) | selectivity ratio [4]: 3.3 | selectivity ratio [5]: 19 | Activity [10]: 91% | Activity [11]: 65% | Activity [12]: 56% | Activity [13]: 53%

Oc1ccc(-c2ccccc2)cc1
IC50 [1]: 45 µg/mL (≈ 264 µM) | IC50 [2]: 25 µg/mL (≈ 147 µM) | IC50 [3]: 47 µg/mL (≈ 276 µM) | selectivity ratio [4]: 2 | selectivity ratio [5]: 1 | Activity [14]: 48% | Activity [15]: 65% | Activity [16]: 81% | Activity [17]: 55%

Oc1cccc(-c2cccc(O)c2)c1
IC50 [1]: 68 µg/mL (≈ 365 µM) | IC50 [2]: 2.5 µg/mL (≈ 13.4 µM) | IC50 [3]: 51.6 µg/mL (≈ 277 µM) | selectivity ratio [4]: 28 | selectivity ratio [5]: 1.3 | Activity [6]: 50% | Activity [7]: 5% | Activity [8]: 29% | Activity [9]: 16%

COc1ccc(-c2ccc(O)cc2)cc1OC
IC50 [1]: > 100 µg/mL | IC50 [2]: 26 µg/mL (≈ 113 µM) | IC50 [3]: 34 µg/mL (≈ 148 µM) | selectivity ratio [4]: > 4 | selectivity ratio [5]: > 3 | Activity [14]: 55% | Activity [15]: 41% | Activity [16]: 22% | Activity [17]: 87%

COc1cccc(-c2ccc(O)cc2)c1
IC50 [1]: 35 µg/mL (≈ 175 µM) | IC50 [2]: 24 µg/mL (≈ 120 µM) | IC50 [3]: 41 µg/mL (≈ 205 µM) | selectivity ratio [4]: 1.5 | selectivity ratio [5]: 0.9 | Activity [10]: 48% | Activity [11]: 51% | Activity [12]: 35% | Activity [13]: 34%

COc1cccc(-c2cccc(O)c2)c1
IC50 [1]: 34 µg/mL (≈ 170 µM) | IC50 [2]: 16 µg/mL (≈ 79.9 µM) | IC50 [3]: 33 µg/mL (≈ 165 µM) | selectivity ratio [4]: 2 | selectivity ratio [5]: 1 | Activity [18]: 31% | Activity [19]: 21% | Activity [20]: 88% | Activity [21]: 71%

COc1cccc(-c2ccccc2)c1
IC50 [1]: 5.5 µg/mL (≈ 29.9 µM) | IC50 [2]: 1.1 µg/mL (≈ 5.97 µM) | IC50 [3]: 47 µg/mL (≈ 255 µM) | selectivity ratio [4]: 5.1 | selectivity ratio [5]: 0.1 | Activity [22]: 57% | Activity [23]: 73% | Activity [24]: 77% | Activity [25]: 81% | Activity [26]: inactive

C=CCc1ccc(O)c(-c2ccc(O)c(CC=C)c2)c1 [HONOKIOL]
IC50 [1]: 9.3 µg/mL (≈ 34.9 µM) | IC50 [3]: 5 µg/mL (≈ 18.8 µM) | selectivity ratio [4]: 1.5 | selectivity ratio [5]: 1.9 | Activity [22]: 55% | Activity [23]: 36% | Activity [24]: 45% | Activity [25]: 45%

Oc1ccccc1-c1ccccc1O
IC50 [1]: 57 µg/mL (≈ 306 µM) | IC50 [2]: 2.5 µg/mL (≈ 13.4 µM) | IC50 [3]: 60 µg/mL (≈ 322 µM) | selectivity ratio [4]: 23 | selectivity ratio [5]: 1 | Activity [6]: 57% | Activity [7]: 23% | Activity [8]: 3% | Activity [9]: 18%

COc1ccc(-c2ccc(N)cc2)c(OC)c1
IC50 [1]: 22 µg/mL (≈ 96 µM) | IC50 [2]: 2.2 µg/mL (≈ 9.6 µM) | IC50 [3]: > 100 µg/mL | selectivity ratio [4]: 10 | selectivity ratio [5]: < 0.2 | Activity [6]: 51% | Activity [7]: 41% | Activity [8]: 40% | Activity [9]: 39%

Oc1ccc(-c2cccc(O)c2)cc1
IC50 [1]: 31 µg/mL (≈ 166 µM) | IC50 [2]: 3.4 µg/mL (≈ 18.3 µM) | IC50 [3]: > 100 µg/mL | selectivity ratio [4]: 9 | selectivity ratio [5]: 9 | Activity [6]: 52% | Activity [7]: 35% | Activity [8]: 30% | Activity [9]: 39%

Nc1cccc(-c2ccc(O)cc2)c1
IC50 [1]: > 100 µg/mL | IC50 [2]: 5.4 µg/mL (≈ 29.2 µM) | IC50 [3]: 6.5 µg/mL (≈ 35.1 µM) | selectivity ratio [4]: > 18 | selectivity ratio [5]: > 15 | Activity [6]: 55% | Activity [7]: 42% | Activity [8]: 78% | Activity [9]: 39%
